Experimental data from ChEMBL document CHEMBL5346941, “Design, synthesis and evaluation of novel monoamine oxidase B (MAO-B) inhibitors with improved pharmacokinetic properties for Parkinson's disease” (Eur J Med Chem, 2023).
The source made the active and inactive calls. The calls are words filed in the database; no cut-off is given here.

Columns and labels:
[1] = Apparent permeability across basolateral to apical side in MDCKII-MDR1 cells at 10 uM incubated for 30 mins by LC-MS/MS analysis; format: ADME, cell-based, Canis lupus familiaris; conditions: dog, MDCK-MDR1
[2] = Bioavailability in fasted ICR mouse at 5 mg/kg, IG measured for 24 hrs; format: ADME, organism-based; conditions: in vivo, po
[3] = AUC (0 to t) in fasted ICR mouse at 5 mg/kg, IG measured for 24 hrs; format: ADME, organism-based; design: dose 5 mg/kg, time 24 hrs, route ig; conditions: in vivo, po
[4] = target: Voltage-gated inwardly rectifying potassium channel KCNH2 (Homo sapiens, UniProt Q12809); test: Inhibition of hERG transfected in CHO-K1 cells at -80 mV holding potential incubated for 2 mins by patch clamp assay; format: toxicity, cell-based
CYP3A4 = CYP3A4 (Homo sapiens, UniProt P08684); test: Inhibition of CYP3A4 in human liver microsomes using midazolam as substrate at 10 uM incubated for 5 mins in presence of NADPH by LC-MS/MS analysis relative to control; format: ADME, Microsome; conditions: probe midazolam
[5] = Clearance in fasted Sprague-Dawley rat at 1 mg/kg, iv measured for 24 hrs; format: ADME, organism-based; conditions: in vivo
[6] = Drug concentration in Sprague-Dawley rat plasma at 5 mg/kg, ip measured after 60 mins by LC-MS/MS analysis; format: ADME, organism-based
[7] = Metabolic stability in rat liver microsomes assessed as half life at 1 uM incubated for 60 mins in presence of NADPH by LC-MS/MS analysis; format: ADME, Microsome
[8] = Protein binding in monkey plasma at 0.1 to 10 uM incubated for 5 hrs by LC-MS/MS based rapid equilibrium dialysis method; format: ADME, cell-free, Macaca mulatta; conditions: rhesus monkey, dose 0.1-10 µM, read-out: PPB (converted)
[9] = target: T1, Amine oxidase [flavin-containing] A (Homo sapiens, UniProt P21397); test: Inhibition of recombinant human MAO-A expressed in Sf9 cells using […] as substrate preincubated for 15 mins followed by substrate addition and measured after 60 mins by luciferin based luminescence analysis
T1 sequence (P21397 whole entry): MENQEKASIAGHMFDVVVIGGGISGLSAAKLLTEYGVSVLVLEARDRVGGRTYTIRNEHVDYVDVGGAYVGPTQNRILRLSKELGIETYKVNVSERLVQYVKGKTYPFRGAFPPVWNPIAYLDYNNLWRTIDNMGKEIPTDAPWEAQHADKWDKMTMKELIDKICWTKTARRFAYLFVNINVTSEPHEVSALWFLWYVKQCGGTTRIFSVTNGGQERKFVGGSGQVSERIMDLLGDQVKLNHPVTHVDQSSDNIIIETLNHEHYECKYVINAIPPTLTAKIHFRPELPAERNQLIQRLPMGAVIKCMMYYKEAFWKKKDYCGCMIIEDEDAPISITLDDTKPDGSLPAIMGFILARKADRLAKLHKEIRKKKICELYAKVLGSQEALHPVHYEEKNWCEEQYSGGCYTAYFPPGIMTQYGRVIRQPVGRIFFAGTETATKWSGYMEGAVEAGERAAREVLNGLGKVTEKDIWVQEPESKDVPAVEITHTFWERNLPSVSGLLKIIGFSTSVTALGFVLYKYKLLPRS

[10] = Metabolic stability in rat liver microsomes assessed as intrinsic clearance at 1 uM incubated for 60 mins in presence of NADPH by LC-MS/MS analysis; format: ADME, Microsome; conditions: read-out: CLH
[11] = Ratio of drug concentration in Sprague-Dawley brain to plasma at 5 mg/kg, ip measured after 15 mins by LC-MS/MS analysis; format: ADME, organism-based; conditions: rat, read-out: BPR
[12] = Volume of distribution at steady state in fasted Sprague-Dawley rat at 1 mg/kg, iv measured for 24 hrs; format: ADME, organism-based; conditions: in vivo, read-out: Vdss
[13] = Clearance in fasted ICR mouse at 2 mg/kg, iv measured for 24 hrs; format: ADME, organism-based; conditions: in vivo
[14] = Drug concentration in Sprague-Dawley rat brain at 5 mg/kg, ip measured after 120 mins by LC-MS/MS analysis; format: ADME, organism-based; conditions: read-out: Ct
[15] = Metabolic stability in mouse liver microsomes assessed as intrinsic clearance at 1 uM incubated for 60 mins in presence of NADPH by LC-MS/MS analysis; format: ADME, Microsome; conditions: read-out: CLH
[16] = In vivo inhibition of MAO-B in ICR mouse assessed as reduction in enzyme activity in brain by measuring fold change at 1.28 mg/kg, ip administered once for 30 to 60 mins by amplex red based assay relative to safinamide; format: functional; conditions: time 30-60 min
[17] = Cmax in fasted Sprague-Dawley rat at 1 mg/kg, iv measured for 24 hrs; format: ADME, organism-based; design: dose 1 mg/kg, time 24 hrs, route iv; conditions: Sprague-Dawley, in vivo, read-out: Cmax
CYP2D6 = CYP2D6 (Homo sapiens, UniProt P10635); test: Inhibition of CYP2D6 in human liver microsomes using propranolol as substrate at 10 uM incubated for 10 mins in presence of NADPH by LC-MS/MS analysis relative to control; format: ADME, Microsome; conditions: probe propranolol
[18] = Ratio of drug concentration in Sprague-Dawley brain to plasma at 5 mg/kg, ip measured after 60 mins by LC-MS/MS analysis; format: ADME, organism-based; conditions: rat, read-out: BPR
[19] = Elimination half life in fasted ICR mouse at 5 mg/kg, IG measured for 24 hrs; format: ADME, organism-based; conditions: in vivo, po, read-out: beta t1/2 (converted)
[20] = Metabolic stability in monkey liver microsomes assessed as half life at 1 uM incubated for 60 mins in presence of NADPH by LC-MS/MS analysis; format: ADME, Macaca mulatta, Microsome; conditions: rhesus monkey
[21] = Drug concentration in Sprague-Dawley rat plasma at 5 mg/kg, ip measured after 120 mins by LC-MS/MS analysis; format: ADME, organism-based
Mus musculus = test: Anti-parkinson activity in MPTP-induced dopamine deficit C57BL/6 mouse model assessed as increase in dopamine concentration in striatum at 3 to 10 mg/kg, ip pretreated with MPTP for 4 hrs followed by compound administration for 5 times once every 4 hrs further incubated with benserazide at 12.5 mg/kg for 30 mins prior to last dose and measured after 30 mins by HPLC analysis; format: functional, organism-based; conditions: dose 3-10 mg/kg, time 16.5 hrs
[22] = Protein binding in mouse plasma at 1 uM incubated for 5 hrs by LC-MS/MS based rapid equilibrium dialysis method; format: ADME, cell-free; conditions: read-out: PPB (converted)
[23] = Protein binding in dog plasma at 1 uM incubated for 5 hrs by LC-MS/MS based rapid equilibrium dialysis method; format: ADME, cell-free, Canis lupus familiaris; conditions: read-out: PPB (converted)
[24] = Cmax in fasted ICR mouse at 5 mg/kg, IG measured for 24 hrs; format: ADME, organism-based; design: dose 5 mg/kg, time 24 hrs, route ig; conditions: in vivo, po
[25] = Volume of distribution at steady state in fasted ICR mouse at 2 mg/kg, iv measured for 24 hrs; format: ADME, organism-based; conditions: in vivo, read-out: Vdss
[26] = Drug concentration in Sprague-Dawley rat brain at 5 mg/kg, ip measured after 60 mins by LC-MS/MS analysis; format: ADME, organism-based; conditions: read-out: Ct

Sequence of CYP2D6 (P10635 whole entry): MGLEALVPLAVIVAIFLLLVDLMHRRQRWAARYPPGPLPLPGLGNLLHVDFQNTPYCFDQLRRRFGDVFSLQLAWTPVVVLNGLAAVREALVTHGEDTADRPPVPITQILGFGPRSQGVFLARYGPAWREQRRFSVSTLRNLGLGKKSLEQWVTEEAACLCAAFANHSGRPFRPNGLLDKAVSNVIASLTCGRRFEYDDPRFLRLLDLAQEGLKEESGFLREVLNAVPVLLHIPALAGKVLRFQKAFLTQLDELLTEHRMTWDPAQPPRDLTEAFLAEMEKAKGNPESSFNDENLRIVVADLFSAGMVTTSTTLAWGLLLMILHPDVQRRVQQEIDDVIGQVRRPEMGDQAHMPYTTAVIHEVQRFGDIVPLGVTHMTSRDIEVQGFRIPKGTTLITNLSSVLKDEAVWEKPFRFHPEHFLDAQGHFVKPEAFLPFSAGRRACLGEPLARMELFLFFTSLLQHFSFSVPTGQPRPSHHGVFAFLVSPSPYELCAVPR
Sequence of CYP3A4 (P08684 whole entry): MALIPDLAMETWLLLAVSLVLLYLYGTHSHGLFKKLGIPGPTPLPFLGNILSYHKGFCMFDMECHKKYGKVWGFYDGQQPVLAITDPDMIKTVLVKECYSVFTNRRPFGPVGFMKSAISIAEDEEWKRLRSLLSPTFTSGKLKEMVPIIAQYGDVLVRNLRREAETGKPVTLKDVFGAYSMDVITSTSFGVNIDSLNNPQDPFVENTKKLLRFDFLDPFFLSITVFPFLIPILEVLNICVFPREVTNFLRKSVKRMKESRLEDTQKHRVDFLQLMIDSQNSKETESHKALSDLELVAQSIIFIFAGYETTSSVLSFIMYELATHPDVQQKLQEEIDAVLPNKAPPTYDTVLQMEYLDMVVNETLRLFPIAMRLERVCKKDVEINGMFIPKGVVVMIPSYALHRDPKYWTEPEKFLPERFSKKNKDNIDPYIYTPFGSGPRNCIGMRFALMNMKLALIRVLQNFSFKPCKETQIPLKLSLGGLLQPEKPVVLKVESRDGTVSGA
Sequence of Voltage-gated inwardly rectifying potassium channel KCNH2 (Q12809 whole entry): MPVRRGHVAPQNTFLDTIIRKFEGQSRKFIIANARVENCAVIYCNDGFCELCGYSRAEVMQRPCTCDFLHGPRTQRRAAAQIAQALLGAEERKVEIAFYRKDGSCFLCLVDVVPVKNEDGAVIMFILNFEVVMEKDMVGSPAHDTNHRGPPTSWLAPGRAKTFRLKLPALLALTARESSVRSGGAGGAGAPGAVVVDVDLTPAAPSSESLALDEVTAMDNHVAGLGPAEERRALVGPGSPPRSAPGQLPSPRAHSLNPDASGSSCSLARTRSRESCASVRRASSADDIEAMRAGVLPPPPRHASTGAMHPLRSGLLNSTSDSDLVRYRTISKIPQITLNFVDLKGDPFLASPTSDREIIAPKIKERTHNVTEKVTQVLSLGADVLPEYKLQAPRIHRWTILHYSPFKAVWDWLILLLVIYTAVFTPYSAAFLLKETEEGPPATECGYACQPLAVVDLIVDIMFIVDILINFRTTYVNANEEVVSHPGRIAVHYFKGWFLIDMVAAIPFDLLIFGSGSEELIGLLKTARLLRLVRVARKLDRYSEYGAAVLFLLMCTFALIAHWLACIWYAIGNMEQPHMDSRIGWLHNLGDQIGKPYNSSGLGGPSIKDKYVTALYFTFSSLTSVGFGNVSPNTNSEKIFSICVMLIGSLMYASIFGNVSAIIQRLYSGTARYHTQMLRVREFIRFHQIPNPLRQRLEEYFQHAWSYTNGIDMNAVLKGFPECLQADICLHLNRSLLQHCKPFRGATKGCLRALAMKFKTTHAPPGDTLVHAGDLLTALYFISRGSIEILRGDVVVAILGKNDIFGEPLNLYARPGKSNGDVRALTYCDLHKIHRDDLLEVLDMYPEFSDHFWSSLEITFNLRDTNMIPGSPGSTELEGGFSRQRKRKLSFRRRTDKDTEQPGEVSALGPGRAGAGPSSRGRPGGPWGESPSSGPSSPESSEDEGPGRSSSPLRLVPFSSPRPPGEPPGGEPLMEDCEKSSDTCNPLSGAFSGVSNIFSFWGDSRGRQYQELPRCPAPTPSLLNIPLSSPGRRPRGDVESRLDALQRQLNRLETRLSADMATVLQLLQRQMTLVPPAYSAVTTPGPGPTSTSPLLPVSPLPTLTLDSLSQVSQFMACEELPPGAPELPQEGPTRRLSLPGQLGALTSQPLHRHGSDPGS

What does the source list for NC(=O)[C@@H]1C[C@H](F)CN1Cc1ccc2oc(-c3ccc(F)cc3)cc2c1?
Papp B→A at 0.5 h, 10 µM [1]: 2.97 ×10⁻⁶ cm/s; bioavailability [2]: 105%; AUC(0-t) at 24 h [3]: 7950 ng·h/mL; IC50 [4]: > 30 µM; inhibition at 5 min, 10 µM (CYP3A4): -45.2%; clearance [5]: 54.2 mL/min/kg; concentration at 1 h [6]: 540 ng/mL; half-life at 1 µM [7]: 1.48 h; fraction unbound at 5 h, up to 10 µM [8]: 0.0029; IC50 [9]: > 10 µM; CLint scaled at 1 µM [10]: 10.1 mL/min/kg; Kp at 0.25 h [11]: 10.4; Vd [12]: 3.33 L/kg; clearance [13]: 11 mL/min/kg; concentration at 2 h [14]: 7090 ng/g; CLint scaled at 1 µM [15]: 6.9 mL/min/kg; fold change (FC) [16]: 5; Cmax [17]: 273 ng/mL; inhibition at 10 min, 10 µM (CYP2D6): -3.37%; Kp at 1 h [18]: 16.2; half-life [19]: 3.8 h; half-life at 1 µM [20]: 5.63 h; concentration at 2 h [21]: 458 ng/mL; Activity (Mus musculus): Active; fraction unbound at 5 h, 1 µM [22]: 0.0066; fraction unbound at 5 h, 1 µM [23]: 0.0036; Cmax [24]: 913 ng/mL; Vd [25]: 2.72 L/kg; concentration at 1 h [26]: 8750 ng/g
